Experimental data from the NIST ThermoML archive (doi:10.1021/acs.jced.9b00854).
± gives the expanded uncertainty stated by the source.

Columns and labels:
[1] = Molar enthalpy of transition or fusion; settings: Crystal; DSC
[2] = Crystal

- Molar enthalpy of transition or fusion [1]: 3.75 ± 0.206 kcal/mol
- mass density ([2]; 293 K, 101.33 kPa, X-ray diffraction): 1120 ± 5.8 kg/m3
- Triple point temperature ([2]; DSC): 351.28 ± 0.87 K
Compound: CCNC(=S)NCC [N,N'-diethylthiourea]
